This is an account of results in US20250154138A1, “Small Molecule IL-17A Modulators” (BeiGene, Ltd., priority 2022, published 2025).

SMILES strings stand for the structures.

For test [1], the system named is IL-17-induced GROα secretion from HT-29 cells. Kind of test: GROα release assay in human colorectal adenocarcinoma epithelial cell (HT-29, ELISA). The format is cell-based. Conditions: Homo sapiens, HT-29, 48 h, 10 ng/mL IL-17A, highest concentration 10 μM, read-out: Cellular assay HT29 cell/CXCL1 IC50. An outline of the steps:
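HT-29 cells were exposed 48 h at 37°C to IL-17A (final 10 ng/mL) preincubated 15 min with compound (4-fold dilutions, top 10 μM). Secreted GROα was quantified by ELISA against a standard curve, and IC50 obtained by four-parameter fitting.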

In test [2] the target is human IL-17A / human IL-17RA (Homo sapiens (Human), UniProt Q16552). Kind of test: Human IL-17A biochemical assay (HTRF, blocking of IL-17A binding to IL-17RA). Particulars: 0.4 nM IL-17A, 0.3 nM IL-17RA, max compound concentration 10 uM. In short, it runs like this:
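Inhibition of IL-17A binding to IL-17RA is measured by HTRF using 0.4 nM IL-17A, 0.3 nM IL-17RA and a 3 h compound pre-incubation at room temperature, pH 7.5. IC50 values come from four-parameter logistic fitting.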

human IL-17A / human IL-17RA, sequence (Q16552 24-155): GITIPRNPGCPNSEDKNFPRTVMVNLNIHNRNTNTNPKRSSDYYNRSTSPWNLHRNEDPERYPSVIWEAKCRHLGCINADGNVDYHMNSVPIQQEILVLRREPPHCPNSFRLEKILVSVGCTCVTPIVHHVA

Regarding `Cn1nccc1C(=O)N[C@H](C(=O)Nc1ccc2c(c1)OC(CN1C[C@@H](C(F)(F)F)NC1=O)C2)C1CCC(F)(F)CC1` (stereo partly drawn) [Example 258, N-((1S)-1-(4,4-difluorocyclohexyl)-2-oxo-2-((2-(((S)-2-oxo-4-(trifluoromethyl)imidazolidin-1-yl)methyl)-2,3-dihydrobenzofuran-6-yl)amino)ethyl)-1-methyl-1H-pyrazole-5-carboxamide], the IC50 was 209 nM in test [1] and 108 nM in test [2].
On the same counts, the results for `Cn1nccc1C(=O)N[C@H](C(=O)Nc1ccc2c(c1)CC(CNc1ccccc1F)(N1CC3(CC3)CNC1=O)C2)C1CCCCC1` (stereo partly drawn) [Example 172, N-((1S)-1-cyclohexyl-2-((2-(((2-fluorophenyl)amino)methyl)-2-(6-oxo-5,7-diazaspiro[2.5]octan-5-yl)-2,3-dihydro-1H-inden-5-yl)amino)-2-oxoethyl)-1-methyl-1H-pyrazole-5-carboxamide] are 377 nM and 400 nM.
On the same counts, the results for `CNC(=O)C1(N2CC(CC3CC3)NC2=O)Cc2ccc(NC(=O)[C@@H](NC(=O)c3ccnn3C)C3CCCCC3)cc2C1` (stereo partly drawn) [Example 65, N-((1S)-1-cyclohexyl-2-((2-(4-(cyclopropylmethyl)-2-oxoimidazolidin-1-yl)-2-(methylcarbamoyl)-2,3-dihydro-1H-inden-5-yl)amino)-2-oxoethyl)-1-methyl-1H-pyrazole-5-carboxamide] are 2030 nM and 713 nM.
As to `Cc1nonc1C(=O)N[C@H](C(=O)Nc1ccc2c(c1)CC(c1cn3ccccc3n1)(N1CC3(CC3)CNC1=O)C2)C(C1CC1)C1CC1` (stereo partly drawn) [Example 222, N-((2S)-1,1-dicyclopropyl-3-((2-(imidazo[1,2-a]pyridin-2-yl)-2-(6-oxo-5,7-diazaspiro[2.5]octan-5-yl)-2,3-dihydro-1H-inden-5-yl)amino)-3-oxopropan-2-yl)-4-methyl-1,2,5-oxadiazole-3-carboxamide], the results for the IC50 in test [1] and in test [2] were 66.6 nM and 34.3 nM, respectively.
In the case of `Cn1nccc1C(=O)N[C@H](C(=O)Nc1ccc2c(c1)OC(CN1C[C@@H](C(F)(F)F)NC1=O)C2)C1CCCCC1` (stereo partly drawn) [Example 237, N-((1S)-1-cyclohexyl-2-oxo-2-((2-(((S)-2-oxo-4-(trifluoromethyl)imidazolidin-1-yl)methyl)-2,3-dihydrobenzofuran-6-yl)amino)ethyl)-1-methyl-1H-pyrazole-5-carboxamide], the IC50 in test [1] amounted to 53.3 nM; in test [2] it was 27.1 nM.
In the case of `Cc1nonc1C(=O)N[C@H](C(=O)Nc1ccc2c(c1)CC(c1c[nH]c(C3CC3)n1)(N1C[C@@H](C(C)C)NC1=O)C2)C(C1CC1)C1CC1` (stereo partly drawn) [Example 252, N-((2S)-1,1-dicyclopropyl-3-((2-(2-cyclopropyl-1H-imidazol-4-yl)-2-((R)-4-isopropyl-2-oxoimidazolidin-1-yl)-2,3-dihydro-1H-inden-5-yl)amino)-3-oxopropan-2-yl)-4-methyl-1,2,5-oxadiazole-3-carboxamide], the IC50 in test [1] is 1160 nM; in test [2] it was 829 nM.
For `Cn1nccc1C(=O)N[C@H](C(=O)Nc1ccc2c(c1)CC(N1C[C@@H](C(F)(F)F)NC1=O)C2)C1CCCCC1` (stereo partly drawn) [Example 146, N-((1S)-1-cyclohexyl-2-oxo-2-((2-((S)-2-oxo-4-(trifluoromethyl)imidazolidin-1-yl)-2,3-dihydro-1H-inden-5-yl)amino)ethyl)-1-methyl-1H-pyrazole-5-carboxamide] the same measures were 768 nM and 204 nM.
On to `CC(C)[C@@H]1CN(C2(C(=O)N3CCC(O)C3)Cc3ccc(NC(=O)[C@@H](NC(=O)c4ccnn4C)C4CCCCC4)cc3C2)C(=O)N1` (stereo partly drawn) [Example 136, N-((1S)-1-cyclohexyl-2-((2-(3-hydroxypyrrolidine-1-carbonyl)-2-((R)-4-isopropyl-2-oxoimidazolidin-1-yl)-2,3-dihydro-1H-inden-5-yl)amino)-2-oxoethyl)-1-methyl-1H-pyrazole-5-carboxamide], for which the IC50 in test [1] was 279 nM; in test [2] it was 108 nM.
For the molecule `Cc1nonc1C(=O)N[C@H](C(=O)Nc1ccc2c(c1)CC(C(=O)NC1CCC(F)(F)CC1)(N1CC3(CC3)CNC1=O)C2)C1CCC(F)(F)CC1` (stereo partly drawn) [Example 191, N-((1S)-1-(4,4-difluorocyclohexyl)-2-((2-((4,4-difluorocyclohexyl)carbamoyl)-2-(6-oxo-5,7-diazaspiro[2.5]octan-5-yl)-2,3-dihydro-1H-inden-5-yl)amino)-2-oxoethyl)-4-methyl-1,2,5-oxadiazole-3-carboxamide], the IC50 in test [1] came out at 168 nM; in test [2], 76.9 nM.
Consider `CNC(=O)C1(N2CC(Cc3ccc(C(F)(F)F)cc3)NC2=O)Cc2ccc(NC(=O)[C@@H](NC(=O)c3ccnn3C)C3CCCCC3)cc2C1` (stereo partly drawn) [Example 80, N-((1S)-1-cyclohexyl-2-((2-(methylcarbamoyl)-2-(2-oxo-4-(4-(trifluoromethyl)benzyl)imidazolidin-1-yl)-2,3-dihydro-1H-inden-5-yl)amino)-2-oxoethyl)-1-methyl-1H-pyrazole-5-carboxamide], for which the IC50 was 971 nM in test [1] and 157 nM in test [2].
Turning to `Cc1nonc1C(=O)N[C@H](C(=O)Nc1ccc2c(c1)CC(c1cn3ccccc3n1)(N1CC3(CC3)CNC1=O)C2)C1CCC(F)(F)CC1` (stereo partly drawn) [Example 223, N-((1S)-1-(4,4-difluorocyclohexyl)-2-((2-(imidazo[1,2-a]pyridin-2-yl)-2-(6-oxo-5,7-diazaspiro[2.5]octan-5-yl)-2,3-dihydro-1H-inden-5-yl)amino)-2-oxoethyl)-4-methyl-1,2,5-oxadiazole-3-carboxamide], the IC50 in test [1] amounted to 606 nM; in test [2] it was 118 nM.
For `CC(C)C1(N2CC3(CC3)CNC2=O)Cc2ccc(NC(=O)[C@@H](NC(=O)c3ccnn3C)C3CCCCC3)cc2C1` (stereo partly drawn) [Example 170, N-((1S)-1-cyclohexyl-2-((2-isopropyl-2-(6-oxo-5,7-diazaspiro[2.5]octan-5-yl)-2,3-dihydro-1H-inden-5-yl)amino)-2-oxoethyl)-1-methyl-1H-pyrazole-5-carboxamide] the same measures were 227 nM and 169 nM.
In the case of `CNC(=O)C1(N2CC3(CC3)CNC2=O)Cc2ccc(NC(=O)[C@@H](NC(=O)c3ccnn3C3CC(O)C3)C3CCCCC3)cc2C1` (stereo partly drawn) [Example 132, N-((1S)-1-cyclohexyl-2-((2-(methylcarbamoyl)-2-(6-oxo-5,7-diazaspiro[2.5]octan-5-yl)-2,3-dihydro-1H-inden-5-yl)amino)-2-oxoethyl)-1-(3-hydroxycyclobutyl)-1H-pyrazole-5-carboxamide], the IC50 was 178 nM in test [1] and 66 nM in test [2].
For `CNC(=O)C1(N2CC(C)(C)CNC2=O)Cc2ccc(NC(=O)[C@@H](NC(=O)c3ccnn3C)C3CCCCC3)cc2C1` (stereo partly drawn) [Example 70, N-((1S)-1-cyclohexyl-2-((2-(5,5-dimethyl-2-oxotetrahydropyrimidin-1(2H)-yl)-2-(methylcarbamoyl)-2,3-dihydro-1H-inden-5-yl)amino)-2-oxoethyl)-1-methyl-1H-pyrazole-5-carboxamide] the same measures were 70.6 nM and 26 nM.
For `CNC(=O)C1(N2C[C@@H](C(C)C)NC2=O)Cc2ccc(NC(=O)C(NC(=O)c3ccnn3C)C3CCC(C)(C)CC3)cc2C1` (stereo partly drawn) [Example 87, N-(1-(4,4-dimethylcyclohexyl)-2-((2-((R)-4-isopropyl-2-oxoimidazolidin-1-yl)-2-(methylcarbamoyl)-2,3-dihydro-1H-inden-5-yl)amino)-2-oxoethyl)-1-methyl-1H-pyrazole-5-carboxamide] the same measures were 352 nM and 36 nM.
On the same counts, the results for `CCn1nccc1C(=O)N[C@H](C(=O)Nc1ccc2c(c1)CC(C(=O)NC)(N1CC3(CC3)CNC1=O)C2)C1CCCCC1` (stereo partly drawn) [Example 154, N-((1S)-1-cyclohexyl-2-((2-(methylcarbamoyl)-2-(6-oxo-5,7-diazaspiro[2.5]octan-5-yl)-2,3-dihydro-1H-inden-5-yl)amino)-2-oxoethyl)-1-ethyl-1H-pyrazole-5-carboxamide] are 71.4 nM and 28 nM.
Take `CNC(=O)C1(N2CC(Cc3ccccc3)CNC2=O)Cc2ccc(NC(=O)[C@@H](NC(=O)c3ccnn3C)C3CCCCC3)cc2C1` (stereo partly drawn) [Example 99, N-((1S)-2-((2-(5-benzyl-2-oxotetrahydropyrimidin-1(2H)-yl)-2-(methylcarbamoyl)-2,3-dihydro-1H-inden-5-yl)amino)-1-cyclohexyl-2-oxoethyl)-1-methyl-1H-pyrazole-5-carboxamide]: the values for the IC50 in test [1] and in test [2] were 2480 nM and 278 nM, respectively.
`CNC(=O)C1(N2C[C@@H](C(C)C)NC2=O)Cc2ccc(NC(=O)[C@@H](NC(=O)c3ccnn3C)C3CCCCC3)cc2C1` (stereo partly drawn) [Example 39, N-((1S)-1-cyclohexyl-2-((2-((R)-4-isopropyl-2-oxoimidazolidin-1-yl)-2-(methylcarbamoyl)-2,3-dihydro-1H-inden-5-yl)amino)-2-oxoethyl)-1-methyl-1H-pyrazole-5-carboxamide]: the IC50 in test [1] was found to be 56.4 nM; in test [2] it was 22.6 nM.
Turning to `CNC(=O)C1(N2CC3(CCCC3)CNC2=O)Cc2ccc(NC(=O)[C@@H](NC(=O)c3ccnn3C)C3CCCCC3)cc2C1` (stereo partly drawn) [Example 147, N-((1S)-1-cyclohexyl-2-((2-(methylcarbamoyl)-2-(8-oxo-7,9-diazaspiro[4.5]decan-7-yl)-2,3-dihydro-1H-inden-5-yl)amino)-2-oxoethyl)-1-methyl-1H-pyrazole-5-carboxamide], the IC50 in test [1] amounted to 61.8 nM; in test [2] it was 22.4 nM.
